Measured values published in ChEMBL document CHEMBL1201862, “PubChem BioAssay data set” (2004).
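Five concentrations, 48 hours, 96-well plates. GI50 is the concentration that inhibits growth by half.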 Activity calls are given as the source filed them. Cut-off read from the data, not from the text of the source: active = GI50 up to about 1.1 µM and inactive = higher.

Experiments:
Experiment in all cases: inhibition of tumour cell growth, NCI panel, 48 h
A549 = test system: A549
NCI-H23 = test system: NCI-H23
OVCAR-8 = test system: OVCAR-8
DU-145 = test system: DU-145
SK-MEL-28 = test system: SK-MEL-28
IGROV-1 = test system: IGROV-1
OVCAR-3 = test system: OVCAR-3
PC-3 = test system: PC-3
RPMI-8226 = test system: RPMI-8226
HL-60 = test system: HL-60
ACHN = test system: ACHN
786-0 = test system: 786-0
UO-31 = test system: UO-31
COLO 205 = test system: COLO 205
HT-29 = test system: HT-29
RXF 393 = test system: RXF 393
NCI/ADR-RES = test system: NCI/ADR-RES
Hs-578T = test system: Hs-578T
KM12 = test system: KM12
LOX IMVI = test system: LOX IMVI
EKVX = test system: EKVX
CAKI-1 = test system: CAKI-1
SF-268 = test system: SF-268
K562 = test system: K562
CCRF-CEM = test system: CCRF-CEM
HCT-116 = test system: HCT-116
Malme-3M = test system: Malme-3M
HOP-62 = test system: HOP-62
HCC 2998 = test system: HCC 2998
U-251 = test system: U-251
T47D = test system: T47D
SNB-75 = test system: SNB-75
OVCAR-4 = test system: OVCAR-4
MOLT-4 = test system: MOLT-4
HCT-15 = test system: HCT-15
TK-10 = test system: TK-10
NCI-H522 = test system: NCI-H522
OVCAR-5 = test system: OVCAR-5
SN12C = test system: SN12C
UACC-62 = test system: UACC-62
SNB-19 = test system: SNB-19
SF-539 = test system: SF-539
A498 = test system: A498
MDA-MB-231 = test system: MDA-MB-231
MDA-MB-435 = test system: MDA-MB-435
SR = test system: SR
M14 = test system: M14
NCI-H460 = test system: NCI-H460
SK-MEL-5 = test system: SK-MEL-5
SK-MEL-2 = test system: SK-MEL-2
MCF7 = test system: MCF7
NCI-H226 = test system: NCI-H226
SW-620 = test system: SW-620
SK-OV-3 = test system: SK-OV-3
UACC-257 = test system: UACC-257
SF-295 = test system: SF-295
HOP-92 = test system: HOP-92
MDA-N = test system: MDA-N

## O=C1NCC2(CCN(CC3COc4ccccc4O3)CC2)N1c1ccccc1 (stereo unspecified)
A549
  GI50: > 100 µM (inactive)
NCI-H23
  GI50: > 100 µM (inactive)
OVCAR-8
  GI50: > 100 µM (inactive)
DU-145
  GI50: > 100 µM (inactive)
SK-MEL-28
  GI50: 89.5 µM (inactive)
IGROV-1
  GI50: > 100 µM (inactive)
OVCAR-3
  GI50: > 100 µM (inactive)
PC-3
  GI50: > 100 µM (inactive)
RPMI-8226
  GI50: > 100 µM (inactive)
HL-60
  GI50: 60.3 µM (inactive)
ACHN
  GI50: > 100 µM (inactive)
786-0
  GI50: > 100 µM (inactive)
UO-31
  GI50: > 100 µM (inactive)
COLO 205
  GI50: > 100 µM (inactive)
HT-29
  GI50: > 100 µM (inactive)
RXF 393
  GI50: > 100 µM (inactive)
NCI/ADR-RES
  GI50: > 100 µM (inactive)
Hs-578T
  GI50: > 100 µM (inactive)
KM12
  GI50: > 100 µM (inactive)
LOX IMVI
  GI50: > 100 µM (inactive)
EKVX
  GI50: > 100 µM (inactive)
CAKI-1
  GI50: > 100 µM (inactive)
SF-268
  GI50: > 100 µM (inactive)
K562
  GI50: 80.4 µM (inactive)
CCRF-CEM
  GI50: > 100 µM (inactive)
HCT-116
  GI50: > 100 µM (inactive)
Malme-3M
  GI50: > 100 µM (inactive)
HOP-62
  GI50: > 100 µM (inactive)
HCC 2998
  GI50: > 100 µM (inactive)
U-251
  GI50: > 100 µM (inactive)
T47D
  GI50: > 100 µM (inactive)
SNB-75
  GI50: > 100 µM (inactive)
OVCAR-4
  GI50: > 100 µM (inactive)
MOLT-4
  GI50: 71.1 µM (inactive)
HCT-15
  GI50: > 100 µM
TK-10
  GI50: > 100 µM (inactive)
NCI-H522
  GI50: > 100 µM (inactive)
OVCAR-5
  GI50: > 100 µM (inactive)
SN12C
  GI50: > 100 µM (inactive)
UACC-62
  GI50: > 100 µM (inactive)
SNB-19
  GI50: > 100 µM (inactive)
SF-539
  GI50: > 100 µM (inactive)
A498
  GI50: > 100 µM (inactive)
MDA-MB-231
  GI50: > 100 µM (inactive)
MDA-MB-435
  GI50: > 100 µM (inactive)
SR
  GI50: > 100 µM (inactive)
M14
  GI50: > 100 µM (inactive)
NCI-H460
  GI50: > 100 µM (inactive)
SK-MEL-5
  GI50: > 100 µM (inactive)
SK-MEL-2
  GI50: > 100 µM (inactive)
MCF7
  GI50: > 100 µM (inactive)
NCI-H226
  GI50: > 100 µM (inactive)
SW-620
  GI50: > 100 µM (inactive)
SK-OV-3
  GI50: > 100 µM (inactive)
UACC-257
  GI50: > 100 µM (inactive)
SF-295
  GI50: > 100 µM (inactive)

## O=C(CSCC(=O)N/N=C/c1ccc(F)cc1)N/N=C/c1ccc(F)cc1
A549
  GI50: 54.8 µM (inactive)
NCI-H23
  GI50: > 100 µM (inactive)
OVCAR-8
  GI50: > 100 µM (inactive)
DU-145
  GI50: > 100 µM (inactive)
SK-MEL-28
  GI50: > 100 µM (inactive)
IGROV-1
  GI50: > 100 µM (inactive)
PC-3
  GI50: 66.2 µM (inactive)
RPMI-8226
  GI50: 60.8 µM (inactive)
HOP-92
  GI50: > 100 µM (inactive)
HL-60
  GI50: > 100 µM (inactive)
ACHN
  GI50: > 100 µM (inactive)
786-0
  GI50: > 100 µM (inactive)
UO-31
  GI50: 48.6 µM (inactive)
COLO 205
  GI50: > 100 µM (inactive)
HT-29
  GI50: > 100 µM (inactive)
RXF 393
  GI50: 85.1 µM (inactive)
NCI/ADR-RES
  GI50: > 100 µM (inactive)
Hs-578T
  GI50: > 100 µM (inactive)
KM12
  GI50: > 100 µM (inactive)
EKVX
  GI50: > 100 µM (inactive)
SF-268
  GI50: > 100 µM (inactive)
K562
  GI50: 57.1 µM (inactive)
HCT-116
  GI50: > 100 µM (inactive)
Malme-3M
  GI50: > 100 µM (inactive)
HOP-62
  GI50: > 100 µM (inactive)
HCC 2998
  GI50: 66.8 µM (inactive)
U-251
  GI50: > 100 µM (inactive)
T47D
  GI50: > 100 µM (inactive)
SNB-75
  GI50: > 100 µM (inactive)
OVCAR-4
  GI50: > 100 µM (inactive)
MOLT-4
  GI50: 25.2 µM (inactive)
HCT-15
  GI50: > 100 µM
TK-10
  GI50: > 100 µM (inactive)
NCI-H522
  GI50: 65.9 µM (inactive)
OVCAR-5
  GI50: > 100 µM (inactive)
SN12C
  GI50: > 100 µM (inactive)
UACC-62
  GI50: > 100 µM (inactive)
SNB-19
  GI50: > 100 µM (inactive)
SF-539
  GI50: > 100 µM (inactive)
A498
  GI50: 38.2 µM (inactive)
MDA-MB-231
  GI50: > 100 µM (inactive)
SR
  GI50: > 100 µM (inactive)
M14
  GI50: 76.6 µM (inactive)
NCI-H460
  GI50: > 100 µM (inactive)
SK-MEL-5
  GI50: > 100 µM (inactive)
SK-MEL-2
  GI50: > 100 µM (inactive)
MCF7
  GI50: 46.6 µM (inactive)
NCI-H226
  GI50: > 100 µM (inactive)
SW-620
  GI50: > 100 µM (inactive)
SK-OV-3
  GI50: > 100 µM (inactive)
UACC-257
  GI50: > 100 µM (inactive)

## CC(C)CC(O)P(=O)(O)O.NC1CCCCC1 (stereo unspecified)
A549
  GI50: > 100 µM (inactive)
DU-145
  GI50: > 100 µM (inactive)
SK-MEL-28
  GI50: > 100 µM (inactive)
OVCAR-3
  GI50: > 100 µM (inactive)
PC-3
  GI50: > 100 µM (inactive)
RPMI-8226
  GI50: > 100 µM (inactive)
HL-60
  GI50: > 100 µM (inactive)
ACHN
  GI50: > 100 µM (inactive)
786-0
  GI50: > 100 µM (inactive)
UO-31
  GI50: > 100 µM (inactive)
COLO 205
  GI50: > 100 µM (inactive)
HT-29
  GI50: > 100 µM (inactive)
RXF 393
  GI50: > 100 µM (inactive)
KM12
  GI50: > 100 µM (inactive)
EKVX
  GI50: > 100 µM (inactive)
CAKI-1
  GI50: > 100 µM (inactive)
K562
  GI50: > 100 µM (inactive)
HCT-116
  GI50: > 100 µM (inactive)
HOP-62
  GI50: > 100 µM (inactive)
HCC 2998
  GI50: > 100 µM (inactive)
U-251
  GI50: > 100 µM (inactive)
T47D
  GI50: > 100 µM (inactive)
SNB-75
  GI50: > 100 µM (inactive)
OVCAR-4
  GI50: > 100 µM (inactive)
MOLT-4
  GI50: > 100 µM (inactive)
TK-10
  GI50: > 100 µM (inactive)
OVCAR-5
  GI50: > 100 µM (inactive)
SN12C
  GI50: > 100 µM (inactive)
UACC-62
  GI50: > 100 µM (inactive)
SNB-19
  GI50: > 100 µM (inactive)
A498
  GI50: > 100 µM (inactive)
MDA-MB-231
  GI50: > 100 µM (inactive)
MDA-MB-435
  GI50: > 100 µM (inactive)
M14
  GI50: > 100 µM (inactive)
NCI-H460
  GI50: > 100 µM (inactive)
SK-MEL-5
  GI50: > 100 µM (inactive)
SK-MEL-2
  GI50: > 100 µM (inactive)
MCF7
  GI50: > 100 µM (inactive)
NCI-H226
  GI50: > 100 µM (inactive)
SW-620
  GI50: > 100 µM (inactive)
SK-OV-3
  GI50: > 100 µM (inactive)
MDA-N
  GI50: > 100 µM (inactive)
UACC-257
  GI50: > 100 µM (inactive)
SF-295
  GI50: > 100 µM (inactive)
